ChEMBL document CHEMBL3879908, “Pyrrolidinone carboxamide derivatives” (2014)

Biological target: T1, Chemerin-like receptor 1 (Homo sapiens, UniProt Q99788)
T1 sequence (Q99788 whole entry): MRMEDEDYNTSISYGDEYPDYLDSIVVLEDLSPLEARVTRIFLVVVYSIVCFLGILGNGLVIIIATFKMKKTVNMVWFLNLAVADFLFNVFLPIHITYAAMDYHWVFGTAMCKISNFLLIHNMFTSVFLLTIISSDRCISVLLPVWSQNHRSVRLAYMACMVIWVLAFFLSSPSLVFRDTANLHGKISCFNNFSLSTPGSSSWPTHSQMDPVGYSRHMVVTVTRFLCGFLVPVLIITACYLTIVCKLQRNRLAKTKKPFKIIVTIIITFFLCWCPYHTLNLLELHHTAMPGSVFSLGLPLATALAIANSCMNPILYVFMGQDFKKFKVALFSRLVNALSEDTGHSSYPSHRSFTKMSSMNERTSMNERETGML
Assay: Displacement of [125I]-chemerin from ChemR23 (unknown origin) transfected in mouse BaF3 cells after 3 hrs by scintillation counting method
Format: cell-based

Row | IC50 | Compound
1 | ≤ 30 nM | Cc1cccc(C)c1N1C[C@@](CN2CCC(F)(F)C2)(C(=O)Nc2cc(C#N)cc(C(F)(F)F)c2)[C@H](C)C1=O
2 | 30 to 300 nM | Cc1cccc(C)c1N1C[C@@](CN2CCC2)(C(=O)Nc2cc(C(F)(F)F)cc(C(F)(F)F)c2)[C@H](C)C1=O
3 | ≤ 30 nM | Cc1cccc(C)c1N1C[C@@](CN(C)CC2CC2)(C(=O)Nc2cc(C(F)(F)F)cc(C(F)(F)F)c2)[C@H](C)C1=O
4 | ≤ 30 nM | Cc1cccc(C)c1N1C[C@@](CN2CCCC2)(C(=O)Nc2cc(C#N)cc(C(F)(F)F)c2)[C@H](C)C1=O
5 | 30 to 300 nM | Cc1cccc(C)c1N1C[C@@](CN(C)CC2CCC2)(C(=O)Nc2cc(C(F)(F)F)cc(C(F)(F)F)c2)[C@H](C)C1=O
6 | ≤ 30 nM | CCN(CCF)C[C@@]1(C(=O)Nc2cc(C(F)(F)F)cc(C(F)(F)F)c2)CN(c2c(C)cccc2C)C(=O)[C@H]1C
7 | ≤ 30 nM | Cc1cccc(C)c1N1C[C@@](CN(CCF)CCF)(C(=O)Nc2cc(C(F)(F)F)cc(C(F)(F)F)c2)[C@H](C)C1=O
8 | 30 to 300 nM | Cc1cccc(C)c1N1C[C@@](CN2CCC(F)(F)C2)(C(=O)Nc2cc(C3CC3)cc(C(F)(F)F)c2)[C@H](C)C1=O
9 | ≤ 30 nM | Cc1cccc(C)c1N1C[C@@](CN(CCF)CC2CC2)(C(=O)Nc2cc(C(F)(F)F)cc(C(F)(F)F)c2)[C@H](C)C1=O
10 | ≤ 30 nM | CCN(CC)C[C@@]1(C(=O)Nc2cc(C#N)cc(C(F)(F)F)c2)CN(c2c(C)cccc2C)C(=O)[C@H]1C
11 | 30 to 300 nM | Cc1cccc(C)c1N1C[C@@](CN(C)C(C)C)(C(=O)Nc2cc(C3CC3)cc(C(F)(F)F)c2)[C@H](C)C1=O
12 | 30 to 300 nM | Cc1cccc(C)c1N1C[C@@](CN2CCOCC2)(C(=O)Nc2cc(C#N)cc(C(F)(F)F)c2)[C@H](C)C1=O
13 | 30 to 300 nM | Cc1cccc(C)c1N1C[C@@](CN2CCN(CC(F)(F)F)CC2)(C(=O)Nc2cc(F)cc(C(F)(F)F)c2)[C@H](C)C1=O
14 | ≤ 30 nM | Cc1cccc(C)c1N1C[C@@](CN2CCCCC2)(C(=O)Nc2cc(C#N)cc(C(F)(F)F)c2)[C@H](C)C1=O
15 | ≤ 30 nM | CCN(CC1CC1)C[C@@]1(C(=O)Nc2cc(C(F)(F)F)cc(C(F)(F)F)c2)CN(c2c(C)cccc2C)C(=O)[C@H]1C
16 | ≤ 30 nM | Cc1cccc(C)c1N1CC(CN2CCCC2)(C(=O)Nc2cc(C3CC3)cc(C(F)(F)F)c2)CC1=O (stereo not drawn)
17 | ≤ 30 nM | Cc1cccc(C)c1N1C[C@@](CN(C)CC(C)C)(C(=O)Nc2cc(OC(C)C)cc(C(F)(F)F)c2)[C@H](C)C1=O
18 | 30 to 300 nM | Cc1cccc(C)c1N1C[C@@](CN2CCC(F)CC2)(C(=O)Nc2cc(C(F)(F)F)cc(C(F)(F)F)c2)[C@H](C)C1=O
19 | ≤ 30 nM | Cc1cccc(C)c1N1C[C@@](CN(C)CC(C)C)(C(=O)Nc2cc(C(F)F)cc(C(F)(F)F)c2)[C@H](C)C1=O
20 | 30 to 300 nM | Cc1cccc(C)c1N1C[C@@](CN2CCOCC2)(C(=O)Nc2cc(C3CC3)cc(C(F)(F)F)c2)[C@H](C)C1=O
21 | 30 to 300 nM | CCc1cc(NC(=O)[C@]2(CN3CCC(F)(F)CC3)CN(c3c(C)cccc3C)C(=O)[C@H]2C)cc(C(F)(F)F)c1
22 | 30 to 300 nM | Cc1cccc(C)c1N1C[C@@](CN2CCO[C@H](C)C2)(C(=O)Nc2cc(C#N)cc(C(F)(F)F)c2)[C@H](C)C1=O
23 | ≤ 30 nM | Cc1cccc(C)c1N1C[C@@](CN(C)CC(F)(F)F)(C(=O)Nc2cc(C#N)cc(C(F)(F)F)c2)[C@H](C)C1=O

Row | IC50 | Compound
24 | ≤ 30 nM | Cc1cccc(C)c1N1C[C@@](CN(C)CCCCF)(C(=O)Nc2cc(C(F)(F)F)cc(C(F)(F)F)c2)[C@H](C)C1=O
25 | ≤ 30 nM | Cc1cccc(C)c1N1C[C@@](CN2CCC(F)CC2)(C(=O)Nc2cc(C#N)cc(C(F)(F)F)c2)[C@H](C)C1=O
26 | 30 to 300 nM | Cc1cccc(C)c1N1C[C@@](CN2CCC(F)(F)CC2)(C(=O)Nc2cc(C#N)cc(C(F)(F)F)c2)[C@H](C)C1=O
27 | ≤ 30 nM | CCCN(CC)C[C@@]1(C(=O)Nc2cc(C(F)(F)F)cc(C(F)(F)F)c2)CN(c2c(C)cccc2C)C(=O)[C@H]1C
28 | ≤ 30 nM | CCCN(C)C[C@@]1(C(=O)Nc2cc(C(F)(F)F)cc(C(F)(F)F)c2)CN(c2c(C)cccc2C)C(=O)[C@H]1C
29 | ≤ 30 nM | Cc1cccc(C)c1N1C[C@@](CN(C)CC(C)C)(C(=O)Nc2cc(C(F)(F)F)cc(C(F)(F)F)c2)[C@H](C)C1=O
30 | ≤ 30 nM | Cc1cccc(C)c1N1C[C@@](CN(C)C2CCCCC2)(C(=O)Nc2cc(C(F)(F)F)cc(C(F)(F)F)c2)[C@H](C)C1=O
31 | ≤ 30 nM | Cc1cccc(C)c1N1C[C@@](CN(C)CC(C)(C)C)(C(=O)Nc2cc(C(F)(F)F)cc(C(F)(F)F)c2)[C@H](C)C1=O
32 | 30 to 300 nM | Cc1cccc(C)c1N1C[C@@](CN(C)CC(C)C)(C(=O)Nc2cc(C3CC3)cc(C(F)(F)F)c2)[C@H](C)C1=O
33 | 30 to 300 nM | Cc1cccc(C)c1N1C[C@@](CN2CCC(F)(F)CC2)(C(=O)Nc2cc(Cl)cc(C(F)(F)F)c2)[C@H](C)C1=O
34 | 30 to 300 nM | Cc1cccc(C)c1N1C[C@@](CN2CCCC(F)(F)C2)(C(=O)Nc2cc(C(F)(F)F)cc(C(F)(F)F)c2)[C@H](C)C1=O
35 | 30 to 300 nM | CCN(CC)C[C@@]1(C(=O)Nc2cc(OC(C)C)cc(C(F)(F)F)c2)CN(c2c(C)cccc2C)C(=O)[C@H]1C
36 | ≤ 30 nM | CCN(C[C@@]1(C(=O)Nc2cc(C#N)cc(C(F)(F)F)c2)CN(c2c(C)cccc2C)C(=O)[C@H]1C)C(C)C
37 | 30 to 300 nM | COC1CCN(C[C@@]2(C(=O)Nc3cc(C#N)cc(C(F)(F)F)c3)CN(c3c(C)cccc3C)C(=O)[C@H]2C)CC1
38 | ≤ 30 nM | Cc1cccc(C)c1N1C[C@@](CN(CCF)CC(C)C)(C(=O)Nc2cc(C(F)(F)F)cc(C(F)(F)F)c2)[C@H](C)C1=O
39 | 30 to 300 nM | Cc1cccc(C)c1N1C[C@@](CN(C)CC2CC2)(C(=O)Nc2cc(C#N)cc(C(F)(F)F)c2)[C@H](C)C1=O
40 | ≤ 30 nM | Cc1cccc(C)c1N1C[C@](C(=O)Nc2cc(C(F)(F)F)cc(C(F)(F)F)c2)(N(C)C)CC1=O
41 | ≤ 30 nM | CCN(C)C[C@@]1(C(=O)Nc2cc(C(F)(F)F)cc(C(F)(F)F)c2)CN(c2c(C)cccc2C)C(=O)[C@H]1C
42 | 30 to 300 nM | Cc1cccc(C)c1N1C[C@@](CN2CCC(F)(F)CC2)(C(=O)Nc2cc(F)cc(C(F)(F)F)c2)[C@H](C)C1=O
43 | 30 to 300 nM | Cc1cccc(C)c1N1C[C@@](CN2CCCCC2)(C(=O)Nc2cc(C3CC3)cc(C(F)(F)F)c2)[C@H](C)C1=O
44 | ≤ 30 nM | Cc1cccc(C)c1N1C[C@@](CN(C)CC(F)F)(C(=O)Nc2cc(C(F)(F)F)cc(C(F)(F)F)c2)[C@H](C)C1=O
45 | 30 to 300 nM | COCCN(C)C[C@@]1(C(=O)Nc2cc(C#N)cc(C(F)(F)F)c2)CN(c2c(C)cccc2C)C(=O)[C@H]1C
46 | ≤ 30 nM | Cc1cccc(C)c1N1C[C@@](CN(C)C2CCC2)(C(=O)Nc2cc(C(F)(F)F)cc(C(F)(F)F)c2)[C@H](C)C1=O

Row | IC50 | Compound
47 | 30 to 300 nM | CCN(C)C[C@@]1(C(=O)Nc2cc(C3CC3)cc(C(F)(F)F)c2)CN(c2c(C)cccc2C)C(=O)[C@H]1C
48 | ≤ 30 nM | CCN(CC(F)(F)F)C[C@@]1(C(=O)Nc2cc(C#N)cc(C(F)(F)F)c2)CN(c2c(C)cccc2C)C(=O)[C@H]1C
49 | ≤ 30 nM | CCN(C[C@@]1(C(=O)Nc2cc(C(F)(F)F)cc(C(F)(F)F)c2)CN(c2c(C)cccc2C)C(=O)[C@H]1C)C(C)C
50 | ≤ 30 nM | CCN(C)C[C@@]1(C(=O)Nc2cc(C#N)cc(C(F)(F)F)c2)CN(c2c(C)cccc2C)C(=O)[C@H]1C
51 | ≤ 30 nM | Cc1cccc(C)c1N1C[C@@](CN(C)C)(C(=O)Nc2cc(C#N)cc(C(F)(F)F)c2)[C@H](C)C1=O
52 | ≤ 30 nM | Cc1cccc(C)c1N1C[C@@](CN(C)C(C)C)(C(=O)Nc2cc(C(F)(F)F)cc(C(F)(F)F)c2)[C@H](C)C1=O
53 | ≤ 30 nM | Cc1cccc(C)c1N1C[C@@](CN(C)CCF)(C(=O)Nc2cc(C(F)(F)F)cc(C(F)(F)F)c2)[C@H](C)C1=O
54 | ≤ 30 nM | COCC(C)(C)N(C)C[C@@]1(C(=O)Nc2cc(C(F)(F)F)cc(C(F)(F)F)c2)CN(c2c(C)cccc2C)C(=O)[C@H]1C
55 | 30 to 300 nM | Cc1cccc(C)c1N1C[C@@](CN2CCC(F)(F)C2)(C(=O)Nc2cc(C(F)(F)F)cc(C(F)(F)F)c2)[C@H](C)C1=O
56 | 30 to 300 nM | Cc1cccc(C)c1N1C[C@@](CN2CCOC[C@H]2C)(C(=O)Nc2cc(C(F)(F)F)cc(C(F)(F)F)c2)[C@H](C)C1=O
57 | ≤ 30 nM | Cc1cccc(C)c1N1C[C@@](CN2CCC(F)(F)CC2)(C(=O)Nc2cc(C(F)(F)F)cc(C(F)(F)F)c2)[C@H](C)C1=O
58 | ≤ 30 nM | Cc1cccc(C)c1N1C[C@@](CN(C)CC(F)(F)F)(C(=O)Nc2cc(C(F)(F)F)cc(C(F)(F)F)c2)[C@H](C)C1=O
59 | 30 to 300 nM | CCN(CC)C[C@@]1(C(=O)Nc2cc(Cl)cc(C(F)(F)F)c2)CN(c2c(C)cccc2C)C(=O)[C@H]1C
60 | 30 to 300 nM | Cc1cccc(C)c1N1C[C@@](CN(C)C(C)(C)CO)(C(=O)Nc2cc(C(F)(F)F)cc(C(F)(F)F)c2)[C@H](C)C1=O
61 | ≤ 30 nM | Cc1cccc(C)c1N1C[C@@](CN(C)C(C)C)(C(=O)Nc2cc(C#N)cc(C(F)(F)F)c2)[C@H](C)C1=O
62 | ≤ 30 nM | CCN(CC(C)C)C[C@@]1(C(=O)Nc2cc(C(F)(F)F)cc(C(F)(F)F)c2)CN(c2c(C)cccc2C)C(=O)[C@H]1C
63 | ≤ 30 nM | Cc1cccc(C)c1N1C[C@@](CN2CCC(F)(F)CC2)(C(=O)Nc2cc(OC(C)C)cc(C(F)(F)F)c2)[C@H](C)C1=O
64 | 30 to 300 nM | COCCN(C)C[C@@]1(C(=O)Nc2cc(C(F)(F)F)cc(C(F)(F)F)c2)CN(c2c(C)cccc2C)C(=O)[C@H]1C
65 | 30 to 300 nM | Cc1cccc(C)c1N1C[C@@](CN(C)C2CCC2)(C(=O)Nc2cc(OC(C)C)cc(C(F)(F)F)c2)[C@H](C)C1=O
66 | 30 to 300 nM | Cc1cccc(C)c1N1C[C@@](CN(C)C)(C(=O)Nc2cc(C3CC3)cc(C(F)(F)F)c2)[C@H](C)C1=O
67 | 30 to 300 nM | Cc1cccc(C)c1N1C[C@@](CN2CCC2)(C(=O)Nc2cc(C#N)cc(C(F)(F)F)c2)[C@H](C)C1=O
68 | ≤ 30 nM | CCN(CC)C[C@@]1(C(=O)Nc2cc(C3CC3)cc(C(F)(F)F)c2)CN(c2c(C)cccc2C)C(=O)[C@H]1C
